The values that follow come from patent US20240025845A1, “METASTASIS-INHIBITING COMPOSITION OF NOVEL METHYLSULFONAMIDE DERIVATIVE COMPOUND” (KOREA RESEARCH INSTITUTE OF BIOSCIENCE AND BIOTECHNOLOGY, priority 2020, published 2024).

For one data set, the target named is T1, CSE1L (Homo sapiens, UniProt P55060).
T1 construct: endogenous in cells
T1 sequence (P55060 1-971): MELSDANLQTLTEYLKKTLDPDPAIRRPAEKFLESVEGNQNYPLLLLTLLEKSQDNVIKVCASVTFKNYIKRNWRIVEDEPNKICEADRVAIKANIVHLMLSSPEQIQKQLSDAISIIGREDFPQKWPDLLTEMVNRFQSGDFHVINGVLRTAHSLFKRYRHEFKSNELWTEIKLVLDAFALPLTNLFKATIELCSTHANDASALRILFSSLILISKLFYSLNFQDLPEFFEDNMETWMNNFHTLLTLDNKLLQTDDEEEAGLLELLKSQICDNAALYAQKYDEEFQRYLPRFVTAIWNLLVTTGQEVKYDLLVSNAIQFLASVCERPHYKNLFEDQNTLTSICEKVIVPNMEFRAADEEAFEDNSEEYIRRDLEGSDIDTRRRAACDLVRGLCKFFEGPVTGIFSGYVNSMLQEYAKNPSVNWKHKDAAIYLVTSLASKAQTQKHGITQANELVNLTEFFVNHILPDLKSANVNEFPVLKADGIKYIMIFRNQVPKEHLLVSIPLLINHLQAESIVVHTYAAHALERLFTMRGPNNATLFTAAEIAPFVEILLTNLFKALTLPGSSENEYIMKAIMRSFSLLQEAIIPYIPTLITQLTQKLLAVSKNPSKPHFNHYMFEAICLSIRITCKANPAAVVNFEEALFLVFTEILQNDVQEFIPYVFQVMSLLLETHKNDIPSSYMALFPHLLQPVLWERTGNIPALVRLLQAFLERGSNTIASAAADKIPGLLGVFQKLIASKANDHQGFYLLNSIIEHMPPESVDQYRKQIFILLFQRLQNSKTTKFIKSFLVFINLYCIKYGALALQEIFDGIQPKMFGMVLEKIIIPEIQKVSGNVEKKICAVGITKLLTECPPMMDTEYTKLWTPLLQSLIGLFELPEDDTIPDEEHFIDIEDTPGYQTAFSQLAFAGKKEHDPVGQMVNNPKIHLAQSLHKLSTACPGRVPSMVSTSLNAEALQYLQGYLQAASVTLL
Put plainly: thermal shift assay (TSA) in cells, remaining CSE1L by Western blot. The data set is classed as binding. The note with it: cells treated 10 vM, 24 hours; 42-60° C. for 5 minutes; vs DMSO. From the text:
A CSE1L protein was known as nuclear exportin 2, a type of nuclear exportin that played a role in moving importin-α from the intra-nucleus to the cytoplasm as a cargo protein of nuclear transport (Solsbacher, J.; Maurer, P.; Bischoff, F. R.; Schlenstedt, G. Mol. Cell. Biol. 1998, 18, 6805.). In general, importin-α and Ran-GTP, which were cargo proteins, bound to exportin CSE1L in the nucleus and transported to the cytoplasm through nuclear pores, and the obtained CSE1L-bound Ran-GTP protein was rapidly hydrolyzed to Ran GDP to have the form of a cargo free state (a state in which importin-ax was not bound). Through this series of processes, the protein played a role of substance transport. As another function, the CSE1L protein was particularly abundant in cancer cells or tissues, and reported to have roles and functions in metastasis, such as carcinogenesis, cancer cell movement, and cancer cell invasion, but since the exact mechanism has not been reported yet, it was intended to predict the interaction with a novel metastasis-targeting protein (CSE1L) and develop effective substances using molecular modeling tools. Based on a binding site of the previously identified fusarisetin compound and the target protein (CSE1L), a virtual search was conducted using about 1.5 million compound libraries (commercial focused libraries) to predict combinable compounds. […]
In general terms: In western blotting, separated proteins are transferred to a membrane and probed.

In another data set the test system is MDA-MB-231 cells. Nature of the data set: Wound healing assay (cancer cell movement). The data set is classed as cell-based, human. The procedure: (§1) In order to evaluate the cytotoxicity of the compound 1-1 according to the present invention, MTT assay was performed on a human breast cancer cell line (MDA-MB-231). Cells used in the experiment were all purchased from the American Type Culture Collection (ATCC). First, 1×10^5 MDA-MB-231 cells were divided into 200 vL of 5×10^3 cells in a 96-well plate using a DMEM medium added with 10% fetal bovine serum (FBS), […] and 50 U/ml penicillin while maintained at 37° C. under 5% CO2 air, and then incubated in a CO2 incubator for 24 hours. The purchased compound 1-1 of the present invention was treated at a concentration of 50 vM and incubated for 24 hours under the same culture conditions. After the incubation was completed, the culture medium was removed and 50 vL of 10 mg/mL MTT solution [3-(4,5-dimethylthiazol-2-yl)-2,5-diphenyltetrazolium bromide] (Sigma, St. Louis, MO, USA) was added per well and reacted at 37° C. for 4 hours. Subsequently, a supernatant was removed carefully so as to […] formazan crystals at the bottom, and 50 μL of dimethyl sulfoxide (DMSO) was added per well, and then shaken for 10 minutes, and an optical density (OD) at 590 nm was measured. […] The number of moved cells was quantified using an optical microscope (×100). […]

Data set [1] can be described thus: mouse liver metabolic stability assay. Format: in vitro ADME.
Data set [2] deals with human breast cancer cell line (MDA-MB-231). Put plainly: MTT cytotoxicity assay. The data set is classed as cell-based. The procedure: as §1
In general terms: Tetrazolium assays rely on reduction of a dye to a coloured formazan, in cell work by metabolically active cells.

In data set [3] the test system is mouse breast cancer cell line 4T1. Nature of the data set: orthotopic xenograft spontaneous metastasis mouse model (metastatic breast cancer). Format: in vivo. From the text: In order to test a metastasis-inhibiting effect of the compound 1-1, which was a CSE1L inhibiting compound, in a mouse model, the metastasis-inhibiting effect was confirmed using an orthotopic xenograft spontaneous metastasis model. First, a method of examining metastasis of cancer formed by subcutaneous transplantation of mouse breast cancer cell line 4T1 (murine breast cancer cell) to other tissues was used. Female 6-week-old nude mice (BALB/c) were used. To make solid cancer, the mouse breast cancer cell line 4T1 (1×10^5 murine breast cancer cells) was transplanted into the 4th Mammary Fat Pad of the mouse, and from 5 days later, the compound 1-1 was treated at 10 mg/kg and 50 mg/kg every day for 3 weeks, respectively. […] In addition, after 25 days, the mice were autopsied to confirm the number of cancer cells metastasizing to the lung. […] Through the evaluation of anti-metastasis efficacy using the metastasis breast cancer model, the metastasis-inhibiting efficacy of the compound 1-1 was confirmed through selective regulation of the CSE1L function by binding to the target protein CSE1L. Accordingly, a novel derivative was synthesized in order to secure a substance showing better activity than these substances.

For a further data set, the system named is MDA-MB-231 cell lines. Nature of the data set: transwell Matrigel invasion chamber assay. The data set is classed as cell-based, human. The note with it: MDA-MB-231, 10 and 20 vM, 20 hours, compared to control group. How it is done: as §1
The subject of the next data set is cancer cells. Nature of the data set: real-time cell movement with Holomonitor device. The data set is classed as cell-based.
The next data set has as its system angiogenesis. Nature of the data set: chorioallantoic membrane (CAM) angiogenesis assay. The data set is classed as in vivo. The note with it: fertilized egg, 4 μg. The procedure: In order to confirm whether angiogenesis was inhibited using the compound 1-46, which had high stability in vivo, among methylsulfonamide-based derivative compounds discovered as CSE1L inhibitors, a chorioallantoin membrane (CAM) was performed. First, the surface of the fertilized viable egg was wiped with 70% ethanol, incubated at 37° C. for 4 days, and 3 ml of albumin of the viable egg was extracted and then treated with the compound 1-46 at a concentration of 4 μg, and then it was observed whether angiogenesis was inhibited.

Regarding `CS(=O)(=O)N(CC(N)=O)c1ccc(C(Cl)(Cl)Cl)cc1` [Compound 1-1, 2-[N-methylsulfonyl-4-(trichloromethyl)anilino]acetamide], on CSE1L, the “amount of remaining CSE1L after heating (thermal stabilization)” value is “not reduced, but continuously maintained through structural stabilization”. For the same molecule, in the data set on MDA-MB-231 cells (MDA-MB-231, 10 and 20 μM, 24 hours, compared to control group), the “cell movement of cancer cell line (wound healing)” value is “significantly reduced”. Further, in data set [1], the metabolic stability came out at 89.8%. The “cytotoxicity (MTT)” value in data set [2] (MDA-MB-231, 50 vM, 24 hours) was “no cytotoxicity”. Moreover, the “change in body weight (toxicity)” value in data set [3] (10 mg/kg and 50 mg/kg every day for 3 weeks, compared to negative control group) is “no change in body weight”. In data set [3] (10 mg/kg and 50 mg/kg every day, vs control group), the “formation of cancer tissue in other organs (metastasis, bioluminescence)” value is recorded as “showed a tendency to inhibit the formation of cancer tissue in other organs”. Besides, the “volume and capacity of the tumors” value in data set [3] (10 mg/kg and 50 mg/kg, drug treatment period (16 to 24 days)) is “not suppressed”. For the same molecule, in data set [3] (autopsy after 25 days, compared to control group), the “number of cancer cells metastasizing to the lung” value is on record as “significantly reduced”. For the same molecule, the “number of invaded cancer cells” value in the data set with MDA-MB-231 cell lines was “significantly reduced”. The “invasion and movement of cancer cells in real time” value in the data set with cancer cells is “inhibited the invasion and movement of cancer cells”.
`NC(=O)CN(c1ccc(C(F)(F)F)cc1)S(=O)(=O)CC(F)(F)F` [Compound 1-45]: the metabolic stability in data set [1] amounted to 82.2%.
As to `NC(=O)CN(c1ccc(C(F)(F)F)cc1)S(=O)(=O)CCC(F)(F)F` [Compound 1-46], the “cell movement of cancer cell line (wound healing)” value in the data set on MDA-MB-231 cells (MDA-MB-231, compared to control group, concentration not given) is given as “significantly reduced”. In data set [1], this molecule showed a metabolic stability of 91.4%. Moreover, in data set [2] (MDA-MB-231, 10 to 100 vM), the “cytotoxicity (MTT)” value is reported as “no cytotoxicity”. In addition, the angiogenesis inhibitory activity result in the data set on angiogenesis was “excellent angiogenesis inhibitory activity”. In addition, the “number of invaded cancer cells” value in the data set with MDA-MB-231 cell lines is recorded as “significantly reduced”.
